This experiment in a line: Induction of oxygen binding efficiency of haemoglobin from human sickled red blood cells at 100 uM measured every 10 mins for 180 mins by spectral scan analysis relative to control. Format: functional, Erythrocyte. The conditions noted are these: 3 h.
The compound `CCCCC(=O)/C=C/c1cnn(C(C)C)c1-c1ncccc1COc1cccc(O)c1C=O` had an Activity of 82%. The figure for `COc1ccc(/C=C/c2cnn(C(C)C)c2-c2ncccc2COc2cccc(O)c2C=O)cc1` is 78.6%.

`COc1ccc(/C=C/c2cnn(C(C)C)c2-c2ncccc2COc2cccc(O)c2C=O)c(OC)c1` displayed an Activity of 81.1%. The figure for `Cc1ccc(/C=C/c2cnn(C(C)C)c2-c2ncccc2COc2cccc(O)c2C=O)cc1` is 78.9%. For the compound `CC(C)n1nccc1-c1ncccc1COc1cccc(O)c1C=O` [VOXELOTOR], the Activity stood at 100%.
